The assay concerns multiple myeloma tumor cell line RPMI 8226. The assay is described as follows: Promega Cell Titer-Glo antiproliferative assay, single agent and combination. Format: cell-based, human. The following applies: unit from figure X axis. The protocol:
The antiproliferative activity of tris(8-quinolinolato)gallium(III) and lenalidomide against the human multiple myeloma tumor cell line RPMI 8226 was determined with Promega's Cell Titer-Glo® assay. The human tumor cells were placed in a 96-well microculture plate at the appropriate density for 96 hours of total growth time. After 24 hours of incubation in a humidified incubator at 37° C. with 5% CO2 and 95% air, serially diluted test agents in growth medium were added to each well. After 96 total hours of culture in a CO2 incubator, the plates were processed with Cell Titer-Glo (Promega #G7571) according to manufacturer's instructions. Luminescence was detected using a Tecan GENios microplate reader. Percent inhibition of cell growth was calculated relative to untreated control wells. All tests were performed in duplicate at each concentration level. The IC50 value for the test agents was estimated using Prism 3.03 by curve-fitting the data using the following four parameter-logistic equation: […]
The same Promega Cell Titer-Glo® assay described above was used in the combination study. […] After 96 hours, the cell number was determined with the Cell Titer Glo® assay as described above. […]

pIC50: −log10 of the molar value.

Take `[Ga+3].[O-]c1cccc2cccnc12.[O-]c1cccc2cccnc12.[O-]c1cccc2cccnc12` [tris(8-quinolinolato)gallium(III)]: the pIC50 (RPMI-8226, tris(8-quinolinolato)gallium(III) alone) was approximately 6.05 and the pIC50 (RPMI-8226, with lenalidomide at a constant amount) is 6.30.

These data come from US20140296178A1, “Combination Therapy with a Gallium Complex” (priority 2010, published 2014).
